Here are results for two molecules from patent publication US20250304644A1, “PEPTIDES TRIPLE AGONISTS OF GIP, GLP-1 AND GLP-2” (BAINAN BIOTECH APS, priority 2021, published 2025).

What all share (assay type): cell-based
For one assay, the target named is T1, human GLP-2R (Homo sapiens, UniProt O95838).
T1 construct: host or cells: COS-7
T1 sequence (O95838 1-553): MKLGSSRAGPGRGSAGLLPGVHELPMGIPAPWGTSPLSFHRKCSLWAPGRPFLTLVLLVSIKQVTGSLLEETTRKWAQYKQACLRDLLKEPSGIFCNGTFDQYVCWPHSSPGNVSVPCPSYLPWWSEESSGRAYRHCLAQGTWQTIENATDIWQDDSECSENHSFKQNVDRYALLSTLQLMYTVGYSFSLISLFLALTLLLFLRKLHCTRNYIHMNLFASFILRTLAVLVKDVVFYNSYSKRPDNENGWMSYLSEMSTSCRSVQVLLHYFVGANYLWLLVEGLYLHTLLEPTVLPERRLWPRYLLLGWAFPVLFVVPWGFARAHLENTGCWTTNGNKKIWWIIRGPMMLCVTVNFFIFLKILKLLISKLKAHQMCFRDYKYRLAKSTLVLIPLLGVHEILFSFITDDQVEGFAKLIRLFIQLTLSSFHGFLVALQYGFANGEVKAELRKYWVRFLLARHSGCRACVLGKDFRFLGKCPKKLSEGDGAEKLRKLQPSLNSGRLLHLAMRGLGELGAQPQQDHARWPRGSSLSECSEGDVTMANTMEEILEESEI
Put plainly: cAMP assay (HitHunter) in transiently transfected COS-7 cells expressing human GLP-2R. As to conditions: for Emax: COS-7, normalized to highest concentration of the endogenous ligand, read-out: Efficacy GLP-2R (Emax). (Cyclic AMP is a second messenger, typically raised through Gs and lowered through Gi signalling.)

A further assay concerns the target T2, human SNAP-tagged GIPR (Homo sapiens, UniProt P48546).
T2 construct: host or cells: HEK293A
T2 sequence (P48546 22-466): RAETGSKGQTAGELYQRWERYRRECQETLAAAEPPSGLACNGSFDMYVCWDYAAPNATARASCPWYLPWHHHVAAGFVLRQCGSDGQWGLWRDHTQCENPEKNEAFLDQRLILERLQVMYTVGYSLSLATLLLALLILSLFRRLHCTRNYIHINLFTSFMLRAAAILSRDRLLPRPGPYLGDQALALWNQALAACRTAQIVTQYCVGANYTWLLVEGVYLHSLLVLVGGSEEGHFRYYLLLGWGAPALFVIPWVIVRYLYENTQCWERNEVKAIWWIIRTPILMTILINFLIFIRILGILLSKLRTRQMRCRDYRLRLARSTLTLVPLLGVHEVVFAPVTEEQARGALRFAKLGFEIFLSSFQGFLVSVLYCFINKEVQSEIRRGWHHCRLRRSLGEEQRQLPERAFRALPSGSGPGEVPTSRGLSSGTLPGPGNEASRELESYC
Put plainly: Receptor internalization assay, HEK293A cells expressing human SNAP-tagged GIPR. The following applies: AUC of sigmoid curves up to 1 μM; 60 minutes at 37° C.

Another assay has as its target T3, human GIPR (Homo sapiens, UniProt P48546).
T3 construct: host or cells: COS-7
T3 sequence (P48546 22-466): T2 sequence (P48546 22-466)
Put plainly: cAMP assay (HitHunter) in transiently transfected COS-7 cells expressing human GIPR. As to conditions: COS-7; normalized to highest concentration of the endogenous ligand; read-out: Efficacy GIPR (Emax).

In the next assay the target is T4, human GLP-1R (Homo sapiens, UniProt P43220).
T4 construct: host or cells: COS-7
Put plainly: cAMP assay (HitHunter) in transiently transfected COS-7 cells expressing human GLP-1R. The following applies: for Emax: COS-7, normalized to highest concentration of the endogenous ligand, read-out: Efficacy GLP-1R (Emax).

T4 sequence (P43220 24-463): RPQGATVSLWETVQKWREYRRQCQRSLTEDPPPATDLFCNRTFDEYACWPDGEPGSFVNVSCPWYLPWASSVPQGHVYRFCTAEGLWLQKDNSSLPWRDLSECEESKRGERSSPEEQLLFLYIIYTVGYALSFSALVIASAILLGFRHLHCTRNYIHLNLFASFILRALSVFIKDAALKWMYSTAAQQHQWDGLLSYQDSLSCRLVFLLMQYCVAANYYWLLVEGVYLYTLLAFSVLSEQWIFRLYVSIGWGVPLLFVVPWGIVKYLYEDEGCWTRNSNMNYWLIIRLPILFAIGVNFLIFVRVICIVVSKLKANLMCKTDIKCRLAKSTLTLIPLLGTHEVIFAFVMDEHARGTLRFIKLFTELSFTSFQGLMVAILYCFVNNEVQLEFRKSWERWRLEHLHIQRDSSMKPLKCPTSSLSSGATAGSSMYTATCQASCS

For `CCCCCCCCCC(=O)NCCCC[C@H](NC(=O)[C@@H](NC(=O)[C@@H](NC(=O)[C@H](CCCCN)NC(=O)[C@@H](NC(=O)[C@H](CCC(N)=O)NC(=O)[C@@H](NC(=O)[C@H](CC(C)C)NC(=O)[C@H](Cc1c[nH]c2ccccc12)NC(=O)[C@H](CC(N)=O)NC(=O)[C@@H](NC(=O)[C@H](Cc1ccccc1)NC(=O)[C@H](CC(=O)O)NC(=O)[C@H](CCCNC(=N)N)NC(=O)[C@H](C)NC(=O)[C@H](C)NC(=O)[C@H](CC(C)C)NC(=O)[C@H](CC(N)=O)NC(=O)[C@H](CC(=O)O)NC(=O)[C@H](CC(C)C)NC(=O)[C@@H](NC(=O)[C@@H](NC(=O)[C@H](CO)NC(=O)[C@H](Cc1ccc(O)cc1)NC(=O)[C@H](CC(=O)O)NC(=O)[C@H](CO)NC(=O)[C@@H](NC(=O)[C@H](Cc1ccccc1)NC(=O)[C@@H](NC(=O)CNC(=O)[C@H](CC(=O)O)NC(=O)C(C)(C)NC(=O)[C@@H](N)Cc1c[nH]cn1)[C@@H](C)O)[C@@H](C)CC)[C@@H](C)O)[C@@H](C)CC)[C@@H](C)CC)[C@@H](C)CC)[C@@H](C)O)[C@@H](C)CC)[C@@H](C)O)C(N)=O` [Compound 1], the Emax – broadly, the maximal effect, on the per cent scale that the assay sets – on human GLP-2R came to 96%; at human GIPR it was 93%; on human GLP-1R it was 101%. The EC50 – broadly, the concentration needed to bring the measured effect to its halfway point – on human GLP-2R (cAMP, COS-7 cells, human GLP-2R, read-out: EC50 (nM) GLP-2R) was 2 nM. Further, the “Absolute hGIPR internalization (AUC)” value at human SNAP-tagged GIPR is 5.3.
Take `CC[C@H](C)[C@H](NC(=O)[C@H](Cc1ccccc1)NC(=O)[C@H](CC(=O)O)NC(=O)[C@H](CCCCNC(=O)COCCOCCNC(=O)COCCOCCNC(=O)CC[C@H](NC(=O)CCCCCCCCCCCCCCCCC(=O)O)C(=O)O)NC(=O)[C@H](C)NC(=O)[C@H](C)NC(=O)[C@H](CC(C)C)NC(=O)[C@H](CC(N)=O)NC(=O)[C@H](CC(=O)O)NC(=O)[C@H](CC(C)C)NC(=O)[C@@H](NC(=O)[C@@H](NC(=O)[C@H](CO)NC(=O)[C@H](Cc1ccc(O)cc1)NC(=O)[C@H](CC(=O)O)NC(=O)[C@H](CO)NC(=O)[C@@H](NC(=O)[C@H](Cc1ccccc1)NC(=O)[C@@H](NC(=O)CNC(=O)[C@H](CC(=O)O)NC(=O)[C@H](C)NC(=O)[C@@H](N)Cc1c[nH]cn1)[C@@H](C)O)[C@@H](C)O)[C@@H](C)O)[C@@H](C)CC)C(=O)N[C@@H](CC(N)=O)C(=O)N[C@@H](Cc1c[nH]c2ccccc12)C(=O)N[C@@H](CC(C)C)C(=O)N[C@H](C(=O)N[C@@H](CCC(N)=O)C(=O)N[C@H](C(=O)N[C@@H](CCCCN)C(=O)NCC(=O)N[C@@H](CCCCN)C(=O)N[C@@H](CCCCN)C(=O)O)[C@@H](C)O)[C@@H](C)CC` [Compound 18]: the figures for the Emax at human GLP-2R, at human GIPR and on human GLP-1R were 91%, 82% and 112%, respectively. Moreover, the “Absolute hGIPR internalization (AUC)” value on human SNAP-tagged GIPR is on record as 2.1. For the same molecule, the EC50 at human GLP-1R (cAMP, COS-7 cells, human GLP-1R, read-out: EC50 (nM) GLP-1R) is 0.06 nM.
